Patent US20260373226A1, “METHODS AND COMPOSITIONS FOR THE TREATMENT OF NEURODEGENERATIVE DISEASE” (Stealth BioTherapeutics Inc., priority 2022, published 2026)
“Also recorded” adds a separate entry of the source.

Tests used:
[1] = Brain exposure PK in rats after single SC dose; type: in vivo; conditions: rat; single 5 mg/kg SC
Procedure: FIG. 2A is a chart showing the in vivo pharmacokinetic (PK) and pharmacodynamic (PD) response to SBT-272 brain exposure in rats. Rat brain SBT-272 concentrations up to 36 hours after a single dose of SBT-272 (5 mg/kg; subcutaneous (SC); n=8 rats per time-point).
Evaluation of SBT-272 exposure in brain tissues after subcutaneous dosing. Brain tissues were collected, at various time points (see FIG. 2A) following a single 5 mg/kg subcutaneous (SC) administration of SBT-272 (n=8 rats per time point).
Briefly, issues samples were weighed in 2 mL microcentrifuge tubes (micro tube 2 mL, low protein binding, with screw cap, REF 72.694.600 (Sarstedt, Germany), weight of tissues was recorded in the study file. The centrifuge tubes were kept on ice throughout the procedure. Four times tissue weight purified deionized water with 0.1% formic acid (v/w) was added. Two metal beads were placed in each microcentrifuge tube (Metal Bead Lysing Matrix Bulk, MP, USA). Brain tissues were homogenized using Bead Ruptor (Omni International, USA) for 60 seconds using a speed of […] per cycle. Homogenates (96 μL) were transferred to […] microcentrifuge tubes with surface that minimized binding (REF 04-212-3500, Nerbe Plus, Germany). Homogenates were frozen and kept at −80 °C until sample extraction for LC/MS/MS analysis. Two samples (twice 96 μL) collected, one kept if repeat required. […]

[2] = Phase 1 clinical safety and tolerability in healthy volunteers; type: in vivo, human; conditions: Phase 1, healthy volunteers, SC; interim data analysis
Excerpt: The primary objective of this study is to evaluate the safety and tolerability of single and multiple ascending doses of SBT-272 administered via subcutaneous injection in healthy volunteers. The secondary objects of this study are to: (a) evaluate the plasma PK of SBT-272 in healthy volunteers following subcutaneous administration of single and multiple ascending doses; and (b) to determine an appropriate dose range for subsequence clinical evaluation.

[3] = Steady state PK in plasma, CSF, brain cortex after 10 daily s.c. doses in nonhuman primates; type: in vivo, cynomolgus monkey
Procedure: Pharmacokinetic profile of SBT-272 in nonhuman primate plasma, CSF, and brain. The objective of this study was to determine the pharmacokinetic profile of SBT-272 in CSF and plasma when delivered by subcutaneous (SC) injection for 10 days to cynomolgus monkeys. SBT-272 solution was administered daily by SC injection for 10 days. The following parameters and endpoints were evaluated in this study: mortality, clinical observations, body weights, pharmacokinetic samples (CSF and plasma), and selected tissue collection. There was no mortality during the study. […] Additional details regarding the experimental protocol are provided below.
Test System. Details Regarding the Test System are Provided Below: • Species: Nonhuman primate • Strain/Breed: Cynomolgus monkey • Animal Condition: Non-naïve • Animal Procurement Method: In-house colony • Animal Supplier: Charles River Laboratories • Animal Supplier Location: 531 Boul des Prairies, Laval, QC H7V 1B7, Canada • Animal Origin: Asia • Number of Males: 3 • Age at the Initiation of Dosing: 18 to 60 months • Weight at the Initiation of Dosing: 1.4 to 5.0 kg
Study design. The study design is described in Table 9.
• Route of Administration: Subcutaneous injection into the scapular and mid-dorsal areas • Treatment Frequency: Daily • Treatment Duration: 10 days • Method: The first day of dosing is designated as Day 1. Dose formulations are allowed to warm up at ambient temperature for at least 30 minutes prior to dosing, as appropriate. The animals are temporarily restrained for dose administration and are not be sedated. The volume for each dose is administered over 1 (preferred) or 2 (as necessary) separate injections within the designated area. Injection sites are rotated daily (see FIG. 4B). If a designated subcutaneous test site is not available for a given animal on any day, then the next available test site in the rotation should be used for dosing. The injection area is marked as frequently as required to allow appropriate visualization of administration sites. Hair may be clipped or shaved if required to improve visualization of the injection sites. On the last injection occasion for each quadrant, the last site of injection is circled, and the circled site is collected at necropsy.
CSF Sample Processing. CSF samples re processed and stored within 1 hour of collection. Following each CSF collection, the sample is visually inspected, and the appearance is recorded. Samples are maintained on wet ice prior to and after centrifugation. Samples are centrifuged for 5 minutes in a refrigerated centrifuge (set to maintain 4 °C) at 2000 g RCF within 1 hour of collection. The resultant supernatant is collected within 30 minutes (as quickly as possible) of centrifugation and will be visually inspected; the appearance of the supernatant and any traces of blood in the pellet re recorded. Precipitate (if any) is discarded. CSF samples are separated into 2 approximately 100 μL equal aliquots into uniquely labelled low protein binding polypropylene tubes each containing 10 μL of 5% (v/v) phosphoric acid aqueous solution. Any remaining CSF will be transferred into a 3rd low protein binding polypropylene tube containing a volume of 5% (v/v) phosphoric acid solution adjusted to result in a 1:10 ratio of acid solution: CSF. All samples are placed on dry ice and transferred to a freezer set to maintain −70 °C.
Plasma Sample Processing. […]

Cc1cc(O)cc(C)c1C[C@H](NC(=O)[C@H](N)CCCNC(=N)N)C(=O)N[C@@H](CCCCN)c1nc(Cc2ccccc2)no1 [SBT-272, (R)-2-amino-N—((S)-1-(((S)-5-amino-1-(3-benzyl-1,2,4-oxadiazol-5-yl)pentyl)amino)-3-(4-hydroxy-2,6-dimethylphenyl)-1-oxopropan-2-yl)-5-guanidinopentanamide]
brain penetration / biodistribution across the blood-brain-barrier [1]: brain penetrant and exhibited optimized biodistribution across the blood-brain-barrier
safety profile [2]: consistent safety profile; also recorded: generally safe
plasma:CSF ratio ([3]; cynomolgus monkey, 5 mg/kg s.c., 10 daily doses): 6.40
brain:CSF ratio ([3]; cynomolgus monkey, brain (cortex), 5 mg/kg s.c., 10 daily doses): 328
Kp ([3]; in vivo, sc, cynomolgus monkey, brain (cortex), 5 mg/kg s.c., 10 daily doses, read-out: brain:plasma ratio): 51
brain drug concentration versus predictions based on rodent studies ([3]; nonhuman primate, FIGS. 5A-5B): met predictions based on rodent studies
correlation between species in steady state brain concentration at trough ([3]; rat and nonhuman primate, repeated SC dosing): excellent correlation between species in steady state brain concentration at trough
